The text below walks through data of PubChem BioAssay (NCI).

Values joined by “and” are separate entries in the source; they are usually repeats but may differ in a detail not shown here. Equal entries are not always repeated.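 Cultured in 96-well plates, cells were exposed to test compound for 48 hours across five concentrations. Here, GI50 denotes the concentration required for 50% inhibition of growth. Definition used: TGI = concentration required for complete inhibition of growth.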

Holding throughout (experiment): NCI anticancer screen, dose series, 48 h
Assay [1] has as its system CAKI-1 renal.
Assay [2] relates to CCRF-CEM leukemia.
For assay [3], the system named is HCT-116 colon.
For assay [4], the system named is HCT-15 colon.
For assay [5], the system named is HL-60(TB) leukemia.
For assay [6], the system named is KM12 colon.
The subject of assay [7] is LOX IMVI melanoma.
Assay [8] deals with OVCAR-8 ovarian.
Assay [9] concerns RXF 393 renal.
The subject of assay [10] is SK-MEL-2 melanoma.

In the case of `COc1cc([C@@H]2c3cc4c(cc3[C@@H](NC(=O)c3ccccc3)C3COC(=O)[C@@H]32)OCO4)cc(OC)c1O` (some centres not stated), the TGI in assay [1] was above 100 µM; in assay [2] it was above 100 µM; in assay [3], 28.8 µM; in assay [4] it was above 100 µM; in assay [5], 9.44 µM; in [6], 28.3 µM. The TGI in [7] turned out to be 25.1 µM; in assay [8], 37.7 µM; in [9], 74.4 µM; in assay [10] it was 57.3 µM.
With `CN(C)CCOc1ccc2c(c1)C/C(=C/c1ncc([N+](=O)[O-])n1C)C2=O`, the TGI is 7.81 µM in [1]; 15.1 µM in assay [2]; above 19.6 µM in assay [3]; 3.92 µM in assay [4]; 71.7 µM in assay [5]; 11.6 µM in assay [6]. For the same compound, the TGI is 14.4 µM in assay [7], 8.01 µM in [8], 3.69 µM in assay [9] and 3.58 µM in assay [10].
Take `O=C(CCl)N1c2ccccc2Sc2c1ccc1ccccc21`: the GI50 was 2.05 µM in [1]; 0.696 µM in assay [2]; 1.45 µM in assay [3]; 1.92 µM in assay [4]; 3.06 µM in assay [5]; 6.31 µM in [6]. Besides, the GI50 is 1.12 µM in assay [7], 2.13 µM in assay [8], 1.85 µM in assay [9] and 17.4 µM in assay [10]. Further, the TGI turned out to be 5.04 µM in assay [1]; 36.6 µM in [2]; 2.78 µM in assay [3]; 4.83 µM in assay [4]; 8.98 µM in assay [5]; 20.1 µM in assay [6]. Also, the TGI was found to be 2.42 µM in assay [7], 5.48 µM in assay [8], 3.43 µM in [9] and 32.9 µM in assay [10].
With `CC(=O)O[C@@H]1CC2C(C)(C)CCCC2(C)C2=C1C(=O)C(C(C)C)=CC2=O` (some centres not stated), the GI50 in assay [1] was 1.03 µM; in assay [2], 2.79 µM; in assay [3] it was 0.467 µM; in [4], 0.536 µM; in assay [5], 0.744 µM; in assay [6], 1.14 µM. The GI50 is 1.59 µM in assay [7], 2.64 µM in assay [8], 0.757 µM in [9] and 0.95 µM in assay [10]. In addition, the TGI is 2.63 µM in [1]; above 100 µM in assay [2]; 2.8 µM in assay [3]; 2.49 µM in [4]; 4.28 µM in [5]; 2.68 µM in assay [6]. The TGI in assay [7] was 3.48 µM; in assay [8], 15.9 µM; in assay [9], 2.27 µM; in assay [10] it was 3.53 µM.
Turning to `CC1C(=O)C(C)C(c2ccccc2)N(N=O)C1c1ccccc1` (configuration not stated), the TGI was above 700 µM in [1]; above 1000 µM in [2]; 354 µM in [3]; above 1000 µM in assay [4]; above 1000 µM in assay [5]; above 684 µM in [6]. Also, the TGI in [7] was above 783 µM; in assay [8] it was above 946 µM; in [9], > 68.4 µM and 171 µM; in assay [10], 623 µM. The GI50 was above 1000 µM in [4], 353 µM in [8] and 49.6 µM in assay [9].
In the case of `COC(=O)CNC(=O)[C@@H](OC)[C@@H]1Cc2cc3cc(OC4CC(OC5CC(O)C(O)C(C)O5)C(O)C(C)O4)c(C)c(O)c3c(O)c2C(=O)[C@H]1OC1CC(OC2CC(OC3CC(C)(O)C(O)C(C)O3)C(O)C(C)O2)C(O)C(C)O1` (some centres not stated), the GI50 in assay [1] is 0.243 µM; in assay [2], 0.186 µM; in [3] it was 0.0462 µM; in assay [4], 1.12 µM; in assay [5], 1.08 µM; in [6], 0.127 µM. For the same compound, the GI50 is 0.0592 µM in assay [7], 0.122 µM in assay [8], 0.0877 µM in assay [9] and 0.147 µM in assay [10]. Further, the TGI in [1] was 3.84 µM; in [2], above 50 µM; in assay [3], 5.38 µM; in [4], above 50 µM; in assay [5], 49.1 µM; in assay [6], above 50 µM. The TGI in [7] is above 50 µM; in assay [8], above 50 µM; in assay [9], 0.355 µM; in [10] it was 0.712 µM.
With `COc1ccc2oc3cccc(NCCN(C)C)c3c(=O)c2c1`, the TGI stood at 18.2 µM in assay [1]; 32.1 µM in assay [2]; 19.8 µM in assay [3]; 27.1 µM in [4]; 27.6 µM in assay [5]; 26.7 µM in assay [6]. The TGI is 22.7 µM in assay [7], 23.7 µM in [8], 26.4 µM in assay [9] and 30.2 µM in assay [10].
Turning to `CN(C)C(=S)N=Nc1c(O)[nH]c2ccccc12`, the GI50 in assay [1] was 0.257 µM; in assay [2], 0.298 µM; in assay [3], 0.303 µM; in assay [4], 0.455 µM; in assay [5] it was 1.32 µM; in [6] it was 0.496 µM. The GI50 in assay [7] was 0.46 µM; in [8] it was 0.525 µM; in [9], 1.05 µM; in assay [10] it was 0.8 µM. For the same compound, the TGI in [1] amounted to 1.26 µM; in assay [3] it was 3 µM; in assay [4], 23.4 µM; in assay [5] it was 7.24 µM; in assay [6], 12.9 µM; in assay [7], 13.5 µM. Moreover, the TGI was 26 µM in [8], 14.5 µM in [9] and 19.8 µM in [10].
For `CC(CNC(Cc1ccccc1)c1ccccc1)NC(Cc1ccccc1)c1ccccc1` (configuration not stated), the GI50 in assay [1] was 2.16 µM; in assay [2] it was 2.74 µM; in assay [3], 1.37 µM; in assay [4], 2 µM; in assay [5] it was 2 µM; in [6], 2.36 µM. Moreover, the GI50 in [7] was 1.62 µM; in assay [8] it was 2.6 µM; in assay [9], 1.66 µM; in assay [10], 2.18 µM. In addition, the TGI in assay [1] turned out to be 7.45 µM; in [2], 7.84 µM; in assay [3], 2.86 µM; in assay [4], 4.87 µM; in assay [5] it was 4.51 µM; in assay [6], 5.85 µM. Also, the TGI in assay [7] is 2.98 µM; in assay [8], 6.17 µM; in assay [9], 3.19 µM; in [10], 4.28 µM.
Consider `CCCCCCCCCCCCCCCC(=O)OCC1OC(n2c(O)c(N=NC(N)=S)c3ccc([N+](=O)[O-])cc32)C(OC(C)=O)C1OC(C)=O` (configuration not stated), for which the TGI in [1], in [2], in [3], in [4], in assay [5] and in [6] was above 100 µM in each case. Moreover, the TGI in [7], in assay [8], in [9] and in [10] was above 100 µM each time.
Turning to `CC(=O)c1cc([N+](=O)[O-])ccc1OCC(=O)O`, the TGI in [1], in assay [2], in assay [3], in assay [4], in assay [5] and in assay [6] was above 100 µM in each case. The TGI in assay [7], in assay [8], in [9] and in [10] was above 100 µM each time.
As for `COc1ccc(NC(=O)c2cc(OC)c(OC)c(OC)c2)cc1`, the TGI is above 100 µM in [1]; above 100 µM in assay [2]; above 100 µM in [3]; above 100 µM in assay [4]; 68 µM in assay [5]; above 100 µM in [6]. Further, the TGI is above 100 µM in [7], above 100 µM in assay [8], 94.3 µM in [9] and 65.2 µM in assay [10].
`OCCCCCCOc1ccc(-c2cc(-c3ccccn3)nc(-c3ccccn3)c2)cc1`: the TGI was 1.66 µM in assay [1]; 1.08 µM in assay [2]; 1.48 µM in assay [3]; above 33.1 µM in [4]; 0.514 µM in assay [5]; 2.42 µM in assay [6]. The TGI was 1.02 µM in assay [7], 1.7 µM in [8], 0.853 µM in assay [9] and 1.13 µM in [10].
Take `CN(C)c1ccc2cc(-c3ccccc3F)c(N)nc2c1`: the GI50 in assay [1] is 3.17 µM; in assay [2] it was 2.04 µM; in assay [3] it was 0.454 µM; in [4] it was 0.469 µM; in assay [5], 0.419 µM; in assay [6] it was 0.89 µM. Also, the GI50 in assay [7] was 2.69 µM; in [8], 3.71 µM; in [9], 2.53 µM; in [10], 2.05 µM. For the same compound, the TGI came to 21 µM in assay [1]; 43.7 µM in [2]; 11 µM in assay [3]; 13.2 µM in assay [4]; 9.36 µM in [5]; 14.9 µM in [6]. Besides, the TGI is 15.1 µM in [7], 15.8 µM in assay [8], 10.8 µM in assay [9] and 15 µM in assay [10].
For the compound `N#C/C(=C\c1cccc(O)c1)C(N)=O`, the TGI was above 100 µM in [1]; above 100 µM in assay [2]; above 100 µM in assay [3]; above 100 µM in [4]; 43.5 µM in [5]; above 100 µM in assay [6]. In addition, the TGI in [7], in [8], in assay [9] and in [10] was above 100 µM each time.
